According to US9192595B2, “Compounds with a skin pigmenting activity and pharmaceutical or cosmetic compositions containing them” (priority 2010, dated 2015):

Tests used:
[1] = system: Normal human scalp skin; assay: Epidermal pigmentation in full-thickness skin organ culture (quantitative Masson-Fontana staining); assay type: cell-based
Description: This experimental study on the active ingredient octatrienoic acid according to the invention was based on organ cultures of skin biopsies, which were tested in 4 groups (3 skin biopsies/well) and incubated with different concentrations of the active ingredient for 6 days.
Normal human scalp skin was obtained from a person undergoing routine face-lift surgery, subject to their informed consent. All experiments were performed in accordance with the Declaration of Helsinki, with the approval of an ad hoc Ethical Committee.
Biopsies 3-4 mm in size were cultured at 37° C. for 6 days in Williams' E medium (Biochrom, Cambridge, U.K.) supplemented with 100 IU mL^−1 penicillin, 10 μg mL^−1 streptomycin (Gibco, Karlsruhe, Germany), 10 μg mL^−1 insulin (Sigma, Taufkirchen, Germany), 10 ng mL^−1 hydrocortisone (Sigma) and 2 mmol L^−1 L-glutamine (Invitrogen, Paisley, UK).
Three different concentrations of octatrienoic acid (0.1 μg/mL, 0.25 μg/mL, 0.5 μg/mL) or the reference medium were administered once, at each change of medium (i.e. every 48 hours).
For histochemical melanin assessment, Masson-Fontana staining was applied to frozen adult human scalp skin sections. Melanin stained as brown spots and the degree of pigmentation was evaluated using the quantitative Masson-Fontana test, as described elsewhere (Ito et al., 2005). This method gives a sensitive and reliable indication of changes in melanin synthesis, as shown by standard tyrosinase expression and enzyme activity assays. (Kauser et al., 2006)
Staining intensity was analysed in a previously-defined reference area of the epidermis using ImageJ software (National Institute of Health).
The statistical analysis was performed using Student's two-tailed t-test for independent samples.

[2] = system: tyrosinase mRNA; assay: Tyrosinase mRNA expression by real-time RT-PCR in primary melanocyte cultures; assay type: cell-based, human; details: 24 h incubation; 40 and 55 μm; NHM LP and NHM HP; vs. Ctr; FIG. 3
From the text: (§1) A second experimental study assessed the action of the compounds according to the invention on the phenomena of melanocyte differentiation in the melanogenic process, as described below with reference to the attached drawings in FIGS. 3, 4 and 5. For this purpose, octatrienoic acid (called Octa in the diagrams, for the sake of brevity) was used on foreskin primary melanocyte cultures with varying degrees of basal pigmentation to assess the following parameters: • a) mRNA and tyrosinase protein expression, using real-time RT-PCR and Western-blot methods; • b) enzymatic activity of tyrosinase by spectrophotometry; • c) Quantification of melanin genesis by spectrophotometry.
Tyrosinase mRNA expression was assessed by real-time RT-PCR on mRNA specimens extracted from cells after 24 h of incubation with octatrienoic acid at concentrations of 40 and 55 μm.
Forskoline (FSK), a known adenylate cyclase activator capable of promoting melanin synthesis, was used as a control for comparison with the activity of octatrienoic acid.
For these columns, *=p<0.01 vs. Ctr, **=p<0.001 vs. Ctr, and $=p<0.05 vs. Ctr.

[3] = system: tyrosinase protein; assay: Western blot analysis of tyrosinase protein expression in primary melanocyte cultures; assay type: cell-based, human; details: 72 h; same doses (40 and 55); Western blot on protein extracts
From the text: as §1

[4] = system: tyrosinase; assay: Tyrosinase enzymatic activity by spectrophotometry on melanocyte cell lysates; assay type: cell-based, human; details: 72 h; 40 and 55 μM; NHM LP and NHM HP; p<0.05 vs. Ctr; FIG. 4
From the text: as §1
The activity of tyrosinase was evaluated by spectrophotometry on cell lysates derived from specimens incubated for 72 h with octatrienoic acid at concentrations of 40 and 55 μM, vs. control culture.
For these columns, *=p<0.05 vs. Ctr.

[5] = system: foreskin primary melanocyte cultures; assay: Intracellular melanin content by spectrophotometry in melanocyte cell lysates; assay type: cell-based, human; details: 72 h; 40 and 55 μM; NHM LP and NHM HP; vs. Ctr; FIG. 5
From the text: as §1
In FIG. 5, *=p<0.05 vs. Ctr, **=p<0.01 vs. Ctr, $=p<0.001 vs. ctr.

## C/C=C/C=C/C=C/C(=O)O [octatrienoic acid]
[1]; day 6, each dose (0.1, 0.25, 0.5 μg/mL) by comparison with the medium alone, FIG. 1
  intensity of Masson-Fontana staining: marked increase
[1]; day 6, each dose administered, microphotographs x200, FIG. 2
  pigmentation in the basal layer of the epidermis: increased pigmentation
[1]; skin culture, all three doses tested (0.1, 0.25, 0.5 μg/mL), 6 days
  skin pigmentation: increased the skin pigmentation
[2]
  tyrosinase mRNA expression (Rel tyr mRNA expression, fold change): significant induction
[3]
  melanogenic enzyme (tyrosinase) protein expression: induced melanogenic enzyme protein expression
[4]
  tyrosinase enzymatic activity, % of the Ctr: significant increase
[5]
  quantity of intracellular melanins: significant induction
